From US20090023186A1, “USE OF VALPROIC ACID FOR ENHANCING PRODUCTION OF RECOMBINANT PROTEINS IN MAMMALIAN CELLS” (EXCELLGENE SA, priority 2007, published 2009)

Test system: CHO DG44 cells
Assay: Influence of temperature on IgG batch titer and comparison with sodium butyrate (Example 2)
Type: cell-based, Chinese Hamster
Details: day 5 after transfection
Experimental: No. 14571C-[…]; Lot No. 6A0093; SAFC Biosciences, Lenexa, Kans., USA, “Ex-Cell” medium; note: “Ex-Cell” medium-as used herein-refers to a medium comprising 4 mmol/l L-glutamine) in a 50-ml filter tube each (TPP AG, Trasadingen, Switzerland; Cat. No. 87050, Lot 20050174). In a separate set, 10 million suspension-adapted CHO DG44 cells were resuspended in 0.5 ml of ProCHO5 serum-free medium with 4 mmol/[…] hypoxanthine and 0.194 g/l thymidine (BioWhittaker (Lonza), Belgium; Cat. No. BE12-[…]; Lot No. 7 MB0040; “ProCHO5” medium; note: “ProCHO5” medium-as used herein-refers to a medium comprising 4 mmol/[…] hypoxanthine and 0.194 g/l thymidine) in a 50-ml filter tube each (TPP AG, Trasadingen, Switzerland; Cat. No. 87050, Lot 20050174). Then 12.5 μg plasmid DNA at a concentration of 1 μg/μl was added in each tube with the following composition 50% (6.25 μg) p-LC (SEQ ID NO: 1) 50% (6.25 μg) p-HC (SEQ ID NO: 3). Plasmid p-LC comprises the genetic information for the production of the light chain of an IgG antibody, plasmid p-HC comprises the genetic information for the production of the heavy chain of an IgG antibody. The particular vector constructs used in the present invention can also be obtained from the inventors. The inventors can be contacted via e-mail at […]. Moreover, commercial services do exist that produce any desired nucleotide sequence even comprising several kilobase pairs including complete expression cassettes in plasmid backgrounds (e.g., Invitrogen, Carlsbad, USA; Geneart, Germany.) Thus, providing the genetic sequence information of the plasmids should enable one of ordinary skill in the art to order the plasmids of the present invention at one of the commercial services listed. After shortly mixing the DNA with the cells by gentle shaking, 25 μg of 25-kd linear polyethyleneimine (“PEI”; Polysciences, Eppelheim, Germany; [2]) were added at a concentration of 1 μg/μl to each of the tubes. After shortly mixing by gentle shaking, the filter tubes containing the cells together with the DNA and PEI were transferred into an orbital shaker (Kühner Shaker Cabinet ISF-4-W, “Kühner shaker”, Kühner AG, Birsfelden, Switzerland), and the cells were incubated for 4 hours at 37° C. in a 5% CO2 atmosphere under shaking at 180 rpm. After that time, 4.5 ml of Ex-Cell medium were added to each of the filter tubes containing HEK 293 cells and 4.5 ml of Pro-CHO5 were added to each of the filter tubes containing CHO DG44 cells. […] No. […] Sigma-Aldrich Chemie GmbH, Industriestrasse 25, CH-9471 Buchs SG) was added to the corresponding tubes at the corresponding final concentrations. The cells then were returned into the Kühner shaker. Half the tubes were incubated at 37° C. in a 5% CO2 atmosphere under shaking at 180 rpm, the other half was incubated at 31° C. […] The ELISA was performed as published in prior art. In short, Goat anti-human kappa light chain IgG (Biosource) was used for coating the ELISA-plates, and with AP-conjugated goat anti-human gamma chain IgG (Biosource) the synthesized IgG1 was detected. NPP was used as a substrate for the alkaline phosphatase. Absorption was measured at 405 nm against 490 nm using a microplate reader (SPECTRAmaxTM340; Molecular Devices, Palo Alto, Calif., USA).

[1] = 3.8 mmol/l VPA, relative to control = 1

**Q.** Which “Batch titer increase at 31° C.” value [1] does the source give for CCCC(CCC)C(=O)O [VPA, valproic acid] here?
**A.** 1.5 ± 0.1

**Q.** And the “Batch titer increase at 37° C.” value [1]?
**A.** 2.1 ± 0.1

**Q.** And the “performance compared with sodium butyrate (batch titer increase)” value (31° C. and 37° C.)?
**A.** slightly better performance than sodium butyrate
